Assay results as given in patent US20150044305A1, “[…] NITRIC OXIDE FOR TREATING RESPIRATORY DISEASES” (Advanced Inhalation Therapies (AIT) Ltd., priority 2012, published 2015).

Assays:
inflammatory cytokines = test: Phase I safety study: plasma cytokine levels by cytokine bead array; assay type: in vivo, human; conditions: vs baseline
Experimental: After obtaining informed consent, treatment was initiated within 5 days of enrollment. Subjects were housed in a hospital ward and received 160 ppm gNO for 30 minutes every four hours (Q4 h), five times a day, for five consecutive days by inhalation. Subjects returned for follow-up evaluations 3, 7 and 21 days after the final gNO administration. Subject safety was determined by monitoring vital signs, methemoglobin levels, lung function, blood chemistry, hematology, prothrombin time, inflammatory cytokine/chemokines levels and endothelial activation.
Hematological assessment included a complete blood count and differentials (hemoglobin, hematocrit, red blood cell count, white blood cell count, white blood cell differential, and platelet count) were obtained in order to monitor blood chemistry, hematology and inflammation measurements. The blood chemistry profile included serum creatinine, and liver function tests such as aspartate aminotransferase (AST) serum glutamic oxaloacetic transaminase (SGOT), alkaline phosphatase, and gamma-glutamyl transferase (GGT). The effect of gNO on coagulation was determined by the prothrombin time (PT) and its derived measures of prothrombin ratio (PR) and international normalized ratio (INR). Heparinized plasma was collected at baseline and on days 1, 2, 4, and 5 of gNO administration, and on follow-up days 3, 7 and 21 and frozen at −80° C. Plasma cytokine levels were assessed using the human inflammation cytokine bead array kit (BD Bioscience, Canada). Plasma levels of angiopoietin Ang-1 and Ang-2 were determined by ELISA (R&D Systems, USA).

S. aureus (ATCC) = conditions: 200 ppm gNO, saline suspension; cited from earlier work
[1] = continuous delivery of 80 ppm gNO; cited from earlier work
S. aureus = conditions: cited from earlier work
Klebsiella sp.#1 = conditions: 200 ppm gNO, saline suspension; cited from earlier work
S. aureus (Clinical) = conditions: 200 ppm gNO, saline suspension; cited from earlier work
Klebsiella sp.#3 = conditions: 200 ppm gNO, saline suspension; cited from earlier work
[2] = levels of gNO greater than 120 ppm

SMILES: [N]=O [gNO, nitric oxide]
- cytokine level of IL-1b (inflammatory cytokines): unaffected
- cytokine level of IL-6 (inflammatory cytokines): unaffected
- cytokine level of IL-8 (inflammatory cytokines): unaffected
- cytokine level of IL-10 (inflammatory cytokines): unaffected
- cytokine level of IL-12p70 (inflammatory cytokines): unaffected
- cytokine level of TNF (inflammatory cytokines): unaffected
- LD100 (S. aureus (ATCC)): 4 h
- Latent Period (S. aureus (ATCC)): 3 h
- −2.5 Log10 (hours) (S. aureus (ATCC)): 3.3 hours
- subjects with SpMet exceeding 7% [1]: 35%
- reduction of colony formation (S. aureus; [2]): greater than 90%
- time required to achieve greater than 90% reduction of colony formation (S. aureus; [2]): 8 to 12 h
- survival (downward bactericidal trend) (S. aureus; solid media, increasing gNO concentration up to 160 ppm, vs medical air): 5-10%
- LD100 (Klebsiella sp.#1): 6 h
- Latent Period (Klebsiella sp.#1): 3 h
- −2.5 Log10 (hours) (Klebsiella sp.#1): 3.5 hours
- LD100 (S. aureus (Clinical)): 4 h
- Latent Period (S. aureus (Clinical)): 3 h
- −2.5 Log10 (hours) (S. aureus (Clinical)): 3.7 hours
- LD100 (Klebsiella sp.#3): 6 h
- Latent Period (Klebsiella sp.#3): 3 h
- −2.5 Log10 (hours) (Klebsiella sp.#3): 5.1 hours
